Legend:
[1] = biological target: Ribosomal protein S6 kinase alpha-4 (Homo sapiens) (UniProt O75676); test: Inhibition of human MSK2 at 10 uM after 60 mins by TR-FRET assay; settings: values are per cent of control
[2] = biological target: Ephrin type-A receptor 4 (Homo sapiens) (UniProt P54764); test: Inhibition of human EphA4 at 10 uM after 60 mins by TR-FRET assay; values are per cent of control
[3] = biological target: Death-associated protein kinase 2 (Homo sapiens) (UniProt Q9UIK4); test: Inhibition of human DAPK2 at 10 uM after 60 mins by TR-FRET assay; values are per cent of control
[4] = biological target: Phosphorylase b kinase gamma catalytic chain, liver/testis isoform (Homo sapiens) (UniProt P15735); test: Inhibition of human PhKgamma2 at 10 uM after 60 mins by TR-FRET assay; values are per cent of control
[5] = biological target: Serine/threonine-protein kinase MRCK alpha (Homo sapiens) (UniProt Q5VT25); test: Inhibition of human MRCKalpha at 10 uM after 60 mins by TR-FRET assay; values are per cent of control
[6] = test system: Epidermal growth factor receptor (Homo sapiens), P00533 [L858R,T790M]; settings: 10 uM
Description: Inhibition of human EGFR T790M, L858R mutant at 10 uM after 60 mins by TR-FRET assay

[7] = biological target: Mitogen-activated protein kinase 12 (Homo sapiens) (UniProt P53778); test: Inhibition of human SAPK3 at 10 uM after 60 mins by TR-FRET assay; settings: values are per cent of control
[8] = biological target: Macrophage colony-stimulating factor 1 receptor (Homo sapiens) (UniProt P07333); test: Inhibition of human Fms at 10 uM after 60 mins by TR-FRET assay; values are per cent of control
[9] = biological target: Serine/threonine-protein kinase SIK1 (Homo sapiens) (UniProt P57059); test: Inhibition of human SIK at 10 uM after 60 mins by TR-FRET assay; settings: values are per cent of control
Chain of Serine/threonine-protein kinase SIK1 (Homo sapiens) (P57059 whole entry): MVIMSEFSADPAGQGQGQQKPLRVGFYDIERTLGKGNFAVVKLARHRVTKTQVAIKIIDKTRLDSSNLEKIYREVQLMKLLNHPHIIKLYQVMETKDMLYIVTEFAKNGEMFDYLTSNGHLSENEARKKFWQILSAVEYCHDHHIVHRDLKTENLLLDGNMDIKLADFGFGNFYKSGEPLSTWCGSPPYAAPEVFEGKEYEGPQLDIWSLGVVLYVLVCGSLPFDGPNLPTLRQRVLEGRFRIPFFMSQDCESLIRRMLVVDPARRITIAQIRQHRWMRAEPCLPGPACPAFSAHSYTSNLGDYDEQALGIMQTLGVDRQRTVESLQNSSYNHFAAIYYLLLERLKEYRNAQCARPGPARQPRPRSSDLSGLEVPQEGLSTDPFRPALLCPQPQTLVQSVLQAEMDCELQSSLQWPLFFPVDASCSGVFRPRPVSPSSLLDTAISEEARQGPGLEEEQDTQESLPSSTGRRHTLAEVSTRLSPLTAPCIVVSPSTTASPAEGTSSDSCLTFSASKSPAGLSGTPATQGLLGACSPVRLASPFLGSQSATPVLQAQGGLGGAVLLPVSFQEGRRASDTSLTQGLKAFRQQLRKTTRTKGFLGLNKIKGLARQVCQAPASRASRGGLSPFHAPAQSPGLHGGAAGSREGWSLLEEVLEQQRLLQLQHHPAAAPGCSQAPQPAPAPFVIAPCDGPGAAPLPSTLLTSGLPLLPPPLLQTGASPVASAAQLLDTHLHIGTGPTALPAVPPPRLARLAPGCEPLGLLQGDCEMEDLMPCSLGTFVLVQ

[10] = biological target: Homeodomain-interacting protein kinase 1 (Homo sapiens) (UniProt Q86Z02); test: Inhibition of human HIPK1 at 10 uM after 60 mins by TR-FRET assay; values are per cent of control
[11] = test system: Fibroblast growth factor receptor 1 (Homo sapiens), P11362 [V561M]; test: Inhibition of human FGFR1 V561M mutant at 10 uM after 60 mins by TR-FRET assay; values are per cent of control
[12] = biological target: Ribosomal protein S6 kinase alpha-5 (Homo sapiens) (UniProt O75582); test: Inhibition of human MSK1 at 10 uM after 60 mins by TR-FRET assay; settings: values are per cent of control
Chain of Ribosomal protein S6 kinase alpha-5 (Homo sapiens) (O75582 whole entry, looked up): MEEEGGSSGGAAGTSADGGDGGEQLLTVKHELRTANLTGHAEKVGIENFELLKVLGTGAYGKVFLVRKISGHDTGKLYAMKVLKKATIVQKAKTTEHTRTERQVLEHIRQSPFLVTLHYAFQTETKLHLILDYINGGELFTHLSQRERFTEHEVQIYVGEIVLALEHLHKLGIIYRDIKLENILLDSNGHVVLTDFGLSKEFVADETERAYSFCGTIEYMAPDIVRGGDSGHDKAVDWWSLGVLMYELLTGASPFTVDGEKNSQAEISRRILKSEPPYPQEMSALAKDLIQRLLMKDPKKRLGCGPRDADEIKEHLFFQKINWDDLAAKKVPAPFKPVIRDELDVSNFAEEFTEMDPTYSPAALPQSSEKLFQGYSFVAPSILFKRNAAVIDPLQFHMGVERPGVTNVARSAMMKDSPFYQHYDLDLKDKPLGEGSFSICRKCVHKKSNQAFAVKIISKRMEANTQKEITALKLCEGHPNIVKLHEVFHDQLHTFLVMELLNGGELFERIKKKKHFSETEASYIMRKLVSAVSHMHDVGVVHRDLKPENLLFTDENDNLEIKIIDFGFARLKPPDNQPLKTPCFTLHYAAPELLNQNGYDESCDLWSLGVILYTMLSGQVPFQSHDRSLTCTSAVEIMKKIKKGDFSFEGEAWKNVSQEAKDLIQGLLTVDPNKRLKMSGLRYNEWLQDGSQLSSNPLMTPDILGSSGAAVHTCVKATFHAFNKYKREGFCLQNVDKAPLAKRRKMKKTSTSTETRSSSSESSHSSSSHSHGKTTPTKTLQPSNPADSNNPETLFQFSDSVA

[13] = biological target: Glycogen synthase kinase-3 beta (Homo sapiens) (UniProt P49841); test: Inhibition of human GSK3-beta at 10 uM after 60 mins by TR-FRET assay; values are per cent of control
Chain of Glycogen synthase kinase-3 beta (Homo sapiens) (P49841 whole entry, looked up): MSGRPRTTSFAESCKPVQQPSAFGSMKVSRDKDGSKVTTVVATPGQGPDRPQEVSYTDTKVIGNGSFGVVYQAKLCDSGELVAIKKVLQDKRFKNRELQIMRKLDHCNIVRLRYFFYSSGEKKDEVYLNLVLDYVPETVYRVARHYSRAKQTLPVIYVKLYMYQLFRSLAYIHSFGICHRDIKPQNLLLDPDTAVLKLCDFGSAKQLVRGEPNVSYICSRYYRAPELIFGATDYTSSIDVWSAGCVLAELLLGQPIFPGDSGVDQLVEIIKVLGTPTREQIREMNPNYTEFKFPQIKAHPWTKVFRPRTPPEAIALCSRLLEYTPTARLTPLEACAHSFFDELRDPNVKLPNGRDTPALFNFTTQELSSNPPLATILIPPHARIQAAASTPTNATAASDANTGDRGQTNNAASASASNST

[14] = biological target: Serine/threonine-protein kinase TBK1 (Homo sapiens) (UniProt Q9UHD2); test: Inhibition of human TBK1 at 10 uM after 60 mins by TR-FRET assay; values are per cent of control
Chain of Serine/threonine-protein kinase TBK1 (Homo sapiens) (Q9UHD2 whole entry): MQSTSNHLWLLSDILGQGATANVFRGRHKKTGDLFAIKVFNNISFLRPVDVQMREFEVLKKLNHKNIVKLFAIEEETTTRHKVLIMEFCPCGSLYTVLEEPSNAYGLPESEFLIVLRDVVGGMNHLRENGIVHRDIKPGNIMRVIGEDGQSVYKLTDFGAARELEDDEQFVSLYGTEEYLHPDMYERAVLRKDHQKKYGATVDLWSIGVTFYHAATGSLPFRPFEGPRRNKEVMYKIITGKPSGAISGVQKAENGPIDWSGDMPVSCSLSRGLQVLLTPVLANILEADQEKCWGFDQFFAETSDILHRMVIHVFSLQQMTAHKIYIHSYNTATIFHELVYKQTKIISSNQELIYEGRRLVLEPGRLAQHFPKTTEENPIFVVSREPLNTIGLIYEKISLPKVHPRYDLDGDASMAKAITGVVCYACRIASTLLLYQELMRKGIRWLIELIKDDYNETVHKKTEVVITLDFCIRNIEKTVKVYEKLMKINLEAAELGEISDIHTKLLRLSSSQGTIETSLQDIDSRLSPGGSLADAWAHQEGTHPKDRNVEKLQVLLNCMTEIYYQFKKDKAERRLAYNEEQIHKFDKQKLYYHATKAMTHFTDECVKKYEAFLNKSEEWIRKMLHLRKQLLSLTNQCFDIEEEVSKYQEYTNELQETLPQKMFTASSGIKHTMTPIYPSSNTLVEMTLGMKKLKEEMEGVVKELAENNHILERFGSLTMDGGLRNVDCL

[15] = test system: Proto-oncogene tyrosine-protein kinase receptor Ret (Homo sapiens), P07949 [V804L]; test: Inhibition of human Ret V804L mutant at 10 uM after 60 mins by TR-FRET assay; values are per cent of control
Chain of Proto-oncogene tyrosine-protein kinase receptor Ret (Homo sapiens), P07949 [V804L] (P07949 whole entry V804L): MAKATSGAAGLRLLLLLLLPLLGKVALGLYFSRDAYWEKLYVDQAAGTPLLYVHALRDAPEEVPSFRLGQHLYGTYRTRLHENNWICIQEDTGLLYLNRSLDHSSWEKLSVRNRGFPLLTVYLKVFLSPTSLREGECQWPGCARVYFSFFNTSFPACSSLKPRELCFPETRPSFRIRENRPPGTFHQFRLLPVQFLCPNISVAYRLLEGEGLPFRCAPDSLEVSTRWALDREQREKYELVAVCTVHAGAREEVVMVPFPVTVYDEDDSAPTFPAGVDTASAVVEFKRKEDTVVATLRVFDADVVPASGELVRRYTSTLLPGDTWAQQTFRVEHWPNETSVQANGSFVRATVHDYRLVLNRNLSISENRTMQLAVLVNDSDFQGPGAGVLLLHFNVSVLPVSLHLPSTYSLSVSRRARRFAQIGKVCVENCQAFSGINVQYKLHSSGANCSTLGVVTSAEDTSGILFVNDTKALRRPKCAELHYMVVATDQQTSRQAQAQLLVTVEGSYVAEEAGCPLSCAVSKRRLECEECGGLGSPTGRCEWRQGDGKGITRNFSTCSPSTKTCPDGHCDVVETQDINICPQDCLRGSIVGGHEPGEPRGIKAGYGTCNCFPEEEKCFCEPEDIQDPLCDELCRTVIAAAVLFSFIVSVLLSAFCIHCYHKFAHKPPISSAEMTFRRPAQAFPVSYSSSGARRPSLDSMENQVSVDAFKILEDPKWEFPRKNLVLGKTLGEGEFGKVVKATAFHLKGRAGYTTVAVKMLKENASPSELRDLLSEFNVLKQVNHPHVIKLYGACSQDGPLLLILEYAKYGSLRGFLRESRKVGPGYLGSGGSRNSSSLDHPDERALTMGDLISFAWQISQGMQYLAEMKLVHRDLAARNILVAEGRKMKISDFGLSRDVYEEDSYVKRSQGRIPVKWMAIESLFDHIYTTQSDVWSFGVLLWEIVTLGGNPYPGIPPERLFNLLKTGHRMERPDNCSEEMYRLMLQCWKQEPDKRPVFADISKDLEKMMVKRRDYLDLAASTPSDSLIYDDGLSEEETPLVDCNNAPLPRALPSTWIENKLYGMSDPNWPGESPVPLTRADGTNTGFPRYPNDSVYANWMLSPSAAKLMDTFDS

[16] = biological target: Ephrin type-B receptor 4 (Homo sapiens) (UniProt P54760); test: Inhibition of human EphB4 at 10 uM after 60 mins by TR-FRET assay; values are per cent of control
[17] = test system: Proto-oncogene tyrosine-protein kinase receptor Ret (Homo sapiens), P07949 [V804M]; test: Inhibition of human Ret V804M mutant at 10 uM after 60 mins by TR-FRET assay; values are per cent of control
Chain of Proto-oncogene tyrosine-protein kinase receptor Ret (Homo sapiens), P07949 [V804M] (P07949 whole entry V804M): as the sequence (P07949 whole entry V804L) above, with L804M counted along it

[18] = biological target: Dual specificity protein kinase CLK3 (Homo sapiens) (UniProt P49761); test: Inhibition of human CLK3 at 10 uM after 60 mins by TR-FRET assay; values are per cent of control
Chain of Dual specificity protein kinase CLK3 (Homo sapiens) (P49761 whole entry, looked up): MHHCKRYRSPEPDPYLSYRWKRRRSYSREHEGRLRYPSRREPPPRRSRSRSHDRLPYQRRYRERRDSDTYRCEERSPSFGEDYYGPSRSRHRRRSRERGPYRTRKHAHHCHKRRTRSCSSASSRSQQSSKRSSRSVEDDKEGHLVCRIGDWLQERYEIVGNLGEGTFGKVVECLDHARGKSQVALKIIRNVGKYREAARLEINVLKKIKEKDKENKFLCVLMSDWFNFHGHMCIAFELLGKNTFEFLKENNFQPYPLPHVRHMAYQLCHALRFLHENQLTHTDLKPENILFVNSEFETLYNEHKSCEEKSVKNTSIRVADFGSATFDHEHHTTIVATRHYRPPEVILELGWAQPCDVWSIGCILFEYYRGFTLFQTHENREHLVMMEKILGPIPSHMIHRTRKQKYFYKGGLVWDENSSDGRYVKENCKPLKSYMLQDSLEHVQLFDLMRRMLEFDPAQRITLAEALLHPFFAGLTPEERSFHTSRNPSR

[19] = biological target: mTOR/FKBP12A/FKBP12B (Homo sapiens) (UniProt P62942+P68106+P42345); test: Inhibition of human mTOR/FKBP12 at 10 uM after 60 mins by TR-FRET assay; format: protein-complex assay; settings: values are per cent of control
[20] = biological target: Serine/threonine-protein kinase PAK 4 (Homo sapiens) (UniProt O96013); test: Inhibition of human PAK4 at 10 uM after 60 mins by TR-FRET assay; values are per cent of control
[21] = biological target: G protein-coupled receptor kinase 5 (Homo sapiens) (UniProt P34947); test: Inhibition of human GRK5 at 10 uM after 60 mins by TR-FRET assay; values are per cent of control
[22] = biological target: Tyrosine-protein kinase Fyn (Homo sapiens) (UniProt P06241); test: Inhibition of human Fyn at 10 uM after 60 mins by TR-FRET assay; settings: values are per cent of control
Chain of Tyrosine-protein kinase Fyn (Homo sapiens) (P06241 2-537 limits assumed): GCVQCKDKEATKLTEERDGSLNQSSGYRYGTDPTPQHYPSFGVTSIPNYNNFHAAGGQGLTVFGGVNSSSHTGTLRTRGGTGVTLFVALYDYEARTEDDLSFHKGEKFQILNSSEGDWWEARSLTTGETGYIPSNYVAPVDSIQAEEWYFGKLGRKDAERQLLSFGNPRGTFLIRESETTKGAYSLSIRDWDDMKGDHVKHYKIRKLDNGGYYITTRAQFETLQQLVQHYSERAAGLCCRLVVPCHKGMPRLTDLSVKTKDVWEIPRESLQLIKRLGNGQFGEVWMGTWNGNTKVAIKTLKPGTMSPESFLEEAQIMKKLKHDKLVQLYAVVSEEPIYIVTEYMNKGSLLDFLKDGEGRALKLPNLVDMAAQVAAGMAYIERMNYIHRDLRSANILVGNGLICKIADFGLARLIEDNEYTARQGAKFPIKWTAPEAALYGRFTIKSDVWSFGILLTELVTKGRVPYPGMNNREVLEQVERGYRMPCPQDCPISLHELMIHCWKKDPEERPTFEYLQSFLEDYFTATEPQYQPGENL

[23] = biological target: Serine/threonine-protein kinase Nek11 (Homo sapiens) (UniProt Q8NG66); test: Inhibition of human NEK11 at 10 uM after 60 mins by TR-FRET assay; values are per cent of control
[24] = biological target: Rho-associated protein kinase 2 (Homo sapiens) (UniProt O75116); test: Inhibition of human ROCK-2 at 10 uM after 60 mins by TR-FRET assay; values are per cent of control
[25] = biological target: Dual specificity protein kinase CLK2 (Homo sapiens) (UniProt P49760); test: Inhibition of human CLK2 at 10 uM after 60 mins by TR-FRET assay; values are per cent of control
[26] = biological target: Insulin receptor (Homo sapiens) (UniProt P06213); test: Inhibition of human IR at 10 uM after 60 mins by TR-FRET assay; values are per cent of control
[27] = test system: Mast/stem cell growth factor receptor Kit (Homo sapiens), P10721 [V654A]; test: Inhibition of human c-Kit V654A mutant at 10 uM after 60 mins by TR-FRET assay; values are per cent of control
[28] = biological target: PAS domain-containing serine/threonine-protein kinase (Homo sapiens) (UniProt Q96RG2); test: Inhibition of human PASK at 10 uM after 60 mins by TR-FRET assay; values are per cent of control

residual activity [1]: 109%
residual activity [2]: 127%
residual activity [4]: 109%
residual activity [5]: 105%
inhibition [6]: 88%
residual activity [7]: 110%
residual activity [8]: 96%
residual activity [9]: 117%
residual activity [10]: 110%
residual activity [11]: 106%
residual activity [12]: 114%
residual activity [13]: 90%
residual activity [14]: 108%
residual activity [15]: 109%
residual activity [16]: 108%
residual activity [17]: 116%
residual activity [18]: 96%
residual activity [19]: 107%
residual activity [20]: 112%
residual activity [21]: 115%
residual activity [22]: 116%
residual activity [23]: 126%
residual activity [24]: 101%
residual activity [25]: 104%
residual activity [26]: 106%
residual activity [27]: 112%
residual activity [28]: 99%
SMILES: S=c1[nH]nc(-c2ccncc2)n1-c1ccc2ccccc2c1
residual activity [3]: 108%
